Measurements from patent US11001590B2, “Pyrazolopyrimidine derivatives” (BAYER ANIMAL HEALTH GMBH, priority 2016, dated 2021).

What was measured:
[1] = log P by HPLC on reversed phase columns (Method L0; [a] acidic, [b] neutral range)
Method: Calibration was done with straight-chain alkan-2-ones (with 3 to 16 carbon atoms) with known log P values (measurement of log P values using retention times with linear interpolation between successive alkanones). Lambda-max-values were determined using UV-spectra from 200 nm to 400 nm and the peak values of the chromatographic signals.

C. elegans Slo-1a = C. elegans Slo-1a (Caenorhabditis elegans, UniProt Q95V25); experiment: In vitro assay 1: C. elegans Slo-1a, action at a recombinant C. elegans CHO cell line (membrane potential measurement)
[2] = system: Dirofilaria immitis microfilariae; experiment: In vitro assay 3: Dirofilaria immitis microfilariae (DIROIM L1), motility; conditions: 72 h, reduction of motility vs negative control, 72 h incubation

Sequence of C. elegans Slo-1a (Q95V25 whole entry): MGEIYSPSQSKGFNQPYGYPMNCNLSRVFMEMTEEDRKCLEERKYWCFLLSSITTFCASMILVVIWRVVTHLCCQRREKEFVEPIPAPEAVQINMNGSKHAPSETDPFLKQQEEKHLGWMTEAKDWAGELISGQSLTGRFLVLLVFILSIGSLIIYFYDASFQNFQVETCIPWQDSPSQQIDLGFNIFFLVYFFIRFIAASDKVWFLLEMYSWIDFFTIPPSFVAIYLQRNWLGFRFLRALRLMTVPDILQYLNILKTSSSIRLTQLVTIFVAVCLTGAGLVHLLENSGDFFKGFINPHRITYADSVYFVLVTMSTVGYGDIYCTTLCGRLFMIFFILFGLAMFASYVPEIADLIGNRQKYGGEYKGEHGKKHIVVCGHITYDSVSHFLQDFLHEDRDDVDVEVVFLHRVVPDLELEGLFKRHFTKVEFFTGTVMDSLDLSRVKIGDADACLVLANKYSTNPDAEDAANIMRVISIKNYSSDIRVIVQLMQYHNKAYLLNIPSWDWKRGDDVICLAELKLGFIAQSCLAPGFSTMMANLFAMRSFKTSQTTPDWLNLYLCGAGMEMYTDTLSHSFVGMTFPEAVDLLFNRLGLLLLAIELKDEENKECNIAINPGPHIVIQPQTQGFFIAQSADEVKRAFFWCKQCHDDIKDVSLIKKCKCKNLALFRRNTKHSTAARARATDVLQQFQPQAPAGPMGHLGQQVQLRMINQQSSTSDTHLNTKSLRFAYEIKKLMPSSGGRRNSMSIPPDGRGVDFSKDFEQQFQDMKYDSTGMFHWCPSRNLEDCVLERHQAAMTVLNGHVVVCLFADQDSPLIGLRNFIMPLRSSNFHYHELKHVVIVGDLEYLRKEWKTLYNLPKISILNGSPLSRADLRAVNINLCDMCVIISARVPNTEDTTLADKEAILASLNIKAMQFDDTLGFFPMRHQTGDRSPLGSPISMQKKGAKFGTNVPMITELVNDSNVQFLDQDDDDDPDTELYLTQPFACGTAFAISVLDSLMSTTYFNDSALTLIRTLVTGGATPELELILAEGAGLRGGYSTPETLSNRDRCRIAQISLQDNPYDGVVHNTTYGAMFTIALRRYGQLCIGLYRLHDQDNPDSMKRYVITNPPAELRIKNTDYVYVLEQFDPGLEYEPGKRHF

| SMILES | chromatographic logP [1] | EC50 (C. elegans Slo-1a) | EC50 [2] |
| --- | --- | --- | --- |
| Cc1nn2c(C(C)C)c(C(=O)N[C@H]3CCCc4ccccc43)cnc2c1-c1cccc(F)c1 [Example 347] | 5.04 | 39.8 nM | < 1 µg/mL |
| Cc1nn2c(C(C)C)c(C(=O)N[C@H]3CCc4ccccc43)cnc2c1-c1cccc(CN2CCOCC2)c1 [Example 354] | 2.01 | 398 nM | < 10 µg/mL |
| CCN(CC)Cc1cccc(-c2c(C)nn3c(C(C)C)c(C(=O)N[C@H]4CCc5ccccc54)cnc23)c1 [Example 355] | 2.12 | 2510 nM | < 10 µg/mL |
| Cc1nn2c(C(C)C)c(C(=O)N[C@H]3CCc4ccccc43)cnc2c1-c1cccc(N2CCCCC2)c1 [Example 356] | 3.25 | 158 nM | < 10 µg/mL |
| Cc1nn2c(C3CC3)c(C(=O)N[C@H]3CCc4ccccc43)cnc2c1-c1cccc(OC(F)(F)F)c1 [Example 360] | 4.72 | 12.6 nM | < 1 µg/mL |
| Cc1nn2c(C(C)C)c(C(=O)N[C@H]3CCCc4ccccc43)cnc2c1-c1cccc(N(C)C)c1 [Example 361] | 4.32 | 15.8 nM | < 1 µg/mL |
| Cc1nn2c(C(C)C)c(C(=O)N[C@H]3CCCc4ccccc43)cnc2c1-c1cncc(Cl)c1 [Example 362] | 4.52 | 100 nM | < 10 µg/mL |
| COc1cc(-c2c(C)nn3c(C(C)C)c(C(=O)N[C@H]4CCCc5ccccc54)cnc23)cc(C(F)(F)F)c1 [Example 363] | 5.7 | 63.1 nM | < 10 µg/mL |
| Cc1nn2c(C(C)C)c(C(=O)N[C@H]3CCc4ccccc43)cnc2c1-c1cccc(CN2CCCC2)c1 [Example 365] | 2.08 | 3160 nM | < 10 µg/mL |
| Cc1nn2c(C(C)C)c(C(=O)N[C@H]3CCc4ccccc43)cnc2c1-c1cccc(CN(C)C)c1 [Example 366] | 1.95 | 1580 nM | < 10 µg/mL |
| Cc1nn2c(C(C)C)c(C(=O)N[C@H]3CCc4ccccc43)cnc2c1-c1cccc(COCC(F)(F)F)c1 [Example 367] | 4.99 | 158 nM | < 10 µg/mL |
| Cc1nn2c(C(C)C)c(C(=O)N[C@H]3CCc4ccccc43)cnc2c1-c1cccc(COC(C)C)c1 [Example 369] | 5.25 | 20 nM | < 10 µg/mL |
| CCOCc1cccc(-c2c(C)nn3c(C(C)C)c(C(=O)N[C@H]4CCc5ccccc54)cnc23)c1 [Example 370] | 4.86 | 15.8 nM | < 1 µg/mL |
| Cc1nn2c(C(C)C)c(C(=O)N[C@H]3CCc4ccccc43)cnc2c1-c1cccc(N2CCC2)c1 [Example 372] | 4.67 | 15.8 nM | < 1 µg/mL |
| CCN(C)c1cccc(-c2c(C)nn3c(C(C)C)c(C(=O)N[C@H]4CCc5ccccc54)cnc23)c1 [Example 373] | 3.48 | 39.8 nM | < 1 µg/mL |
| COCCn1cc(-c2c(C)nn3c(C(C)C)c(C(=O)N[C@H]4CCc5ccccc54)cnc23)cn1 [Example 375] | 3.26 | 200 nM | < 10 µg/mL |
| COc1cc(Cl)cc(-c2c(C)nn3c(C(C)C)c(C(=O)N[C@H]4CCCc5ccccc54)cnc23)c1 [Example 378] | 5.55 | 50.1 nM | < 1 µg/mL |
| CCN(CC)c1cccc(-c2c(C)nn3c(C(C)C)c(C(=O)N[C@H]4CCc5ccccc54)cnc23)c1 [Example 379] | 2.81 | 100 nM | < 1 µg/mL |
| CSCc1cccc(-c2c(C)nn3c(C(C)C)c(C(=O)N[C@H]4CCc5ccccc54)cnc23)c1 [Example 388] | 5 | 7.94 nM | < 1 µg/mL |
| Cc1nn2c(C(C)C)c(C(=O)N[C@H]3CCc4ccccc43)cnc2c1-c1cccc(COCC2CC2)c1 [Example 389] | 5.24 | 251 nM | < 10 µg/mL |
| CCCOCc1cccc(-c2c(C)nn3c(C(C)C)c(C(=O)N[C@H]4CCc5ccccc54)cnc23)c1 [Example 390] | 5.4 | 39.8 nM | < 10 µg/mL |
| COc1cc(-c2c(C)nn3c(C(C)C)c(C(=O)N[C@H]4CCOc5ccccc54)cnc23)cc(C(F)(F)F)c1 [Example 391] | 5.13 | 25.1 nM | < 1 µg/mL |
| Cc1nn2c(C(C)C)c(C(=O)N[C@H]3CCOc4ccccc43)cnc2c1-c1cccc(OC(F)(F)F)c1 [Example 394] | 5.19 | 15.8 nM | < 0.1 µg/mL |
| Cc1nn2c(C(C)C)c(C(=O)N[C@H]3CCc4ccccc43)cnc2c1-c1cnn(C(C)C)c1 [Example 398] | 3.77 | 20 nM | < 1 µg/mL |
| Cc1nn2c(C(C)C)c(C(=O)N[C@H]3CCc4ccccc43)cnc2c1-c1cccc(CN2CCN(C)CC2)c1 [Example 399] | 1.98 | 7940 nM | < 10 µg/mL |

| SMILES | chromatographic logP [1] | EC50 (C. elegans Slo-1a) | EC50 [2] |
| --- | --- | --- | --- |
| Cc1nn2c(C(C)C)c(C(=O)N[C@H]3CCc4ccccc43)cnc2c1-c1cccc(CS(C)(=O)=O)c1 [Example 400] | 3.39 | 126 nM | < 10 µg/mL |
| CC(C)c1c(C(=O)N[C@H]2CCc3ccccc32)cnc2c(-c3cccc(N(C)C)c3)c(C3CC3)nn12 [Example 407] | 4.81 | 126 nM | < 10 µg/mL |
| COc1cccc(-c2c(C3CC3)nn3c(C(C)C)c(C(=O)N[C@H]4CCc5ccccc54)cnc23)c1 [Example 408] | 5.19 | 316 nM | < 10 µg/mL |
| CC(C)c1c(C(=O)N[C@H]2CCc3ccccc32)cnc2c(-c3c(F)cccc3F)c(C3CC3)nn12 [Example 413] | 4.96 | 251 nM | < 1 µg/mL |
| Cc1nn2c(C3CC3)c(C(=O)N[C@H]3CCc4ccccc43)cnc2c1-c1cccc(OC(F)F)c1 [Example 417] | 4.01 | 7.94 nM | < 0.1 µg/mL |
| Cc1nn2c(C3CC3)c(C(=O)N[C@H]3CCc4ccccc43)cnc2c1-c1cccc(OC2CC2)c1 [Example 418] | 4.29 | 3.16 nM | < 0.1 µg/mL |
| Cc1nn2c(C(C)C)c(C(=O)N[C@H]3CCCc4ccccc43)cnc2c1-c1cnn(CC2CC2)c1 [Example 420] | 4.13 | 7.94 nM | < 10 µg/mL |
| COc1cc(-c2c(C)nn3c(C4CC4)c(C(=O)N[C@H]4CCc5ccccc54)cnc23)cc(C(F)(F)F)c1 [Example 423] | 4.7 | 63.1 nM | < 10 µg/mL |
| Cc1nn2c(C3CC3)c(C(=O)N[C@H]3CCc4ccccc43)cnc2c1-c1cc(Cl)cc(C(F)(F)F)c1 [Example 425] | 5.34 | 79.4 nM | < 10 µg/mL |
| CC(C)c1c(C(=O)N[C@H]2CCc3ccccc32)cnc2c(-c3cccc(N(C)C)c3)c(C(F)F)nn12 [Example 427] | 4.3 | 20 nM | < 10 µg/mL |
| COc1cccc(-c2c(C(F)F)nn3c(C(C)C)c(C(=O)N[C@H]4CCc5ccccc54)cnc23)c1 [Example 428] | 4.42 | 25.1 nM | < 0.1 µg/mL |
| CC(C)c1c(C(=O)N[C@H]2CCc3ccccc32)cnc2c(-c3cccc(F)c3)c(C(F)F)nn12 [Example 429] | 4.57 | 39.8 nM | < 10 µg/mL |
| COCc1cccc(-c2c(C(F)F)nn3c(C(C)C)c(C(=O)N[C@H]4CCc5ccccc54)cnc23)c1 [Example 430] | 4.36 | 15.8 nM | < 1 µg/mL |
| CC(C)c1c(C(=O)N[C@H]2CCc3ccccc32)cnc2c(-c3cccc(OC(F)(F)F)c3)c(C(F)F)nn12 [Example 431] | 5.18 | 6.31 nM | < 10 µg/mL |
| CC(C)c1c(C(=O)N[C@H]2CCc3ccccc32)cnc2c(-c3cccc(C(F)(F)F)c3)c(C(F)F)nn12 [Example 433] | 5.03 | 10 nM | < 10 µg/mL |
| CC(C)c1c(C(=O)N[C@H]2CCc3ccccc32)cnc2c(-c3ccccc3Cl)c(C(F)F)nn12 [Example 435] | 4.43 | 25.1 nM | < 0.1 µg/mL |
| COc1cccc(-c2c(C)nn3c(C4CC4)c(C(=O)N[C@H]4CCCc5ccccc54)cnc23)c1 [Example 439] | 4.03 | 6.31 nM | < 0.1 µg/mL |
| Cc1nn2c(C3CC3)c(C(=O)N[C@H]3CCc4ccccc43)cnc2c1-c1cccc(N2CC(F)(F)C2)c1 [Example 441] | 4.16 | 10 nM | < 1 µg/mL |
| Cc1nn2c(C(C)C)c(C(=O)N[C@H]3CCc4ccccc43)cnc2c1-c1cccc(S(=O)(=O)C2CC2)c1 [Example 443] | 3.99 | 50.1 nM | < 10 µg/mL |
| Cc1nn2c(C(C)C)c(C(=O)N[C@H]3CCOc4ccccc43)cnc2c1-c1cccc(N2CC(C#N)C2)c1 [Example 444] | 3.91 | 15.8 nM | < 10 µg/mL |
| Cc1nn2c(C3CC3)c(C(=O)N[C@H]3CCc4ccccc43)cnc2c1-c1cnn(CC2CC2)c1 [Example 446] | 3.15 | 12.6 nM | < 10 µg/mL |
| Cc1nn2c(C(C)C)c(C(=O)N[C@H]3CCc4ccccc43)cnc2c1-n1cc(Cl)cn1 [Example 447] | 4.13 | 398 nM | < 10 µg/mL |
| Cc1nn2c(C3CC3)c(C(=O)N[C@H]3CCOc4ccccc43)cnc2c1-c1cccc(C(F)(F)F)c1 [Example 449] | 4.31 | 6.31 nM | < 0.1 µg/mL |
| COc1cccc(-c2c(C)nn3c(C4CC4)c(C(=O)N[C@H]4CCOc5ccccc54)cnc23)c1 [Example 454] | 3.5 | 3.98 nM | < 0.1 µg/mL |
| Cc1nn2c(C3CC3)c(C(=O)N[C@H]3CCOc4ccccc43)cnc2c1-c1cccc(Cl)c1 [Example 455] | 4.13 | 6.31 nM | < 0.1 µg/mL |
